Laboratory results published in patent US11981658B2, “Substituted aminopyridine compounds as EGFR inhibitors” (YUHAN CORPORATION, priority 2021, dated 2024).
Where two headings read alike, the source gives them in different places.

Key:
[1] = molecular target: EGFR Del19/T790M/C797S (Homo sapiens, UniProt P00533, C797S/DEL746-750/T790M); assay: Biochemical EGFR kinase inhibition assay (Lance Ultra TR-FRET), triple mutant del19/T790M/C797S
Summary of the method: (§1)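 Enzyme reactions lasted 1 hour at room temperature with test compounds between 0.003 and 10 μM, followed by 10 mM EDTA quench.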

[2] = molecular target: EGFR L858R/T790M/C797S (Homo sapiens, UniProt P00533, C797S/L858R/T790M); assay: Biochemical EGFR kinase inhibition assay (Lance Ultra TR-FRET), triple mutant L858R/T790M/C797S
Summary of the method: as §1

[3] = molecular target: EGFR wildtype (WT) (Homo sapiens, UniProt P00533); assay: Biochemical EGFR kinase inhibition assay (Lance Ultra TR-FRET), wildtype
Summary of the method: as §1

[4] = molecular target: EGFR Del19/C797S (Homo sapiens, UniProt P00533, C797S/DEL746-750); assay: Biochemical EGFR kinase inhibition assay (Lance Ultra TR-FRET), double mutant del19/C797S
Summary of the method: as §1

[5] = molecular target: EGFR L858R/C797S (Homo sapiens, UniProt P00533, C797S/L858R); assay: Biochemical EGFR kinase inhibition assay (Lance Ultra TR-FRET), double mutant L858R/C797S
Summary of the method: as §1

[6] = IC50 Del19/T790M/C797S (nM), 100 μM ATP
[7] = IC50 L858R/T790M/C797S (nM), 100 μM ATP
[8] = IC50 Del19/C797S (nM), 100 μM ATP
[9] = IC50 L858R/C797S (nM), 100 μM ATP
[10] = Km ATP, read-out: IC50 Del19/T790M/C797S (nM) Km ATP
[11] = Km ATP, read-out: IC50 L858R/T790M/C797S (nM) Km ATP
[12] = Km ATP, read-out: IC50 WT (nM) Km ATP
[13] = Km ATP, read-out: IC50 Del19/C797S (nM) Km ATP
[14] = Km ATP, read-out: IC50 L858R/C797S (nM) Km ATP

EGFR wildtype (WT), sequence (P00533 25-1210): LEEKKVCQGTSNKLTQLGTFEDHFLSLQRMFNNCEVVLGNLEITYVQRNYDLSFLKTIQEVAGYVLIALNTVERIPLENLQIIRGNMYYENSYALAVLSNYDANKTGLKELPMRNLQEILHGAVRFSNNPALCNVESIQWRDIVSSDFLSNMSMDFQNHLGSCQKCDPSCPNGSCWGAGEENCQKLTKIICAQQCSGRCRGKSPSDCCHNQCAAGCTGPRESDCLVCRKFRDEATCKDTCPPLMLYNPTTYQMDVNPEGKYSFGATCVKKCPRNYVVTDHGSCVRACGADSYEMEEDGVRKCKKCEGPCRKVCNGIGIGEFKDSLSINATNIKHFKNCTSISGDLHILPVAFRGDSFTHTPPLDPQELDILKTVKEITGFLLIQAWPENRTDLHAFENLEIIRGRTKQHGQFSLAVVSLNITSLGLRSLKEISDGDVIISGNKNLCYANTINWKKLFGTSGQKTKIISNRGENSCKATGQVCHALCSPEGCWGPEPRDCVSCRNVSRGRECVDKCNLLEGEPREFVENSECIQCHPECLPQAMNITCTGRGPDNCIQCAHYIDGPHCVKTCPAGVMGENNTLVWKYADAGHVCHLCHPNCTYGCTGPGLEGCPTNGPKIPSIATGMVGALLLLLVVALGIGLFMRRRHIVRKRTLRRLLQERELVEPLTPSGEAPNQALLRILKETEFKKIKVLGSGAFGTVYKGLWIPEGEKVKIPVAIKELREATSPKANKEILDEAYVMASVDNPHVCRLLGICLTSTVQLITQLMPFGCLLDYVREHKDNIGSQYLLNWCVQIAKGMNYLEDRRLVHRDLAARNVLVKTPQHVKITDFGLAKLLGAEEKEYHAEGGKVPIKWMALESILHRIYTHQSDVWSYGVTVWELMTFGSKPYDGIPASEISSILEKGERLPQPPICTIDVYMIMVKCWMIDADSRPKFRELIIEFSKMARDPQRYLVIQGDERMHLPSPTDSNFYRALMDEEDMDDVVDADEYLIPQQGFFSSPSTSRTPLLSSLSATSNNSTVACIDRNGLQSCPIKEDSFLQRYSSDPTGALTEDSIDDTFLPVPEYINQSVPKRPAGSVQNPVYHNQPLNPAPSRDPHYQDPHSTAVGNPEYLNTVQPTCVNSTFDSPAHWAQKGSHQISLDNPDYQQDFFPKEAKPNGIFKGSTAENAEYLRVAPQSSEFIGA
EGFR L858R/T790M/C797S, sequence (P00533 25-1210 T790M/C797S/L858R): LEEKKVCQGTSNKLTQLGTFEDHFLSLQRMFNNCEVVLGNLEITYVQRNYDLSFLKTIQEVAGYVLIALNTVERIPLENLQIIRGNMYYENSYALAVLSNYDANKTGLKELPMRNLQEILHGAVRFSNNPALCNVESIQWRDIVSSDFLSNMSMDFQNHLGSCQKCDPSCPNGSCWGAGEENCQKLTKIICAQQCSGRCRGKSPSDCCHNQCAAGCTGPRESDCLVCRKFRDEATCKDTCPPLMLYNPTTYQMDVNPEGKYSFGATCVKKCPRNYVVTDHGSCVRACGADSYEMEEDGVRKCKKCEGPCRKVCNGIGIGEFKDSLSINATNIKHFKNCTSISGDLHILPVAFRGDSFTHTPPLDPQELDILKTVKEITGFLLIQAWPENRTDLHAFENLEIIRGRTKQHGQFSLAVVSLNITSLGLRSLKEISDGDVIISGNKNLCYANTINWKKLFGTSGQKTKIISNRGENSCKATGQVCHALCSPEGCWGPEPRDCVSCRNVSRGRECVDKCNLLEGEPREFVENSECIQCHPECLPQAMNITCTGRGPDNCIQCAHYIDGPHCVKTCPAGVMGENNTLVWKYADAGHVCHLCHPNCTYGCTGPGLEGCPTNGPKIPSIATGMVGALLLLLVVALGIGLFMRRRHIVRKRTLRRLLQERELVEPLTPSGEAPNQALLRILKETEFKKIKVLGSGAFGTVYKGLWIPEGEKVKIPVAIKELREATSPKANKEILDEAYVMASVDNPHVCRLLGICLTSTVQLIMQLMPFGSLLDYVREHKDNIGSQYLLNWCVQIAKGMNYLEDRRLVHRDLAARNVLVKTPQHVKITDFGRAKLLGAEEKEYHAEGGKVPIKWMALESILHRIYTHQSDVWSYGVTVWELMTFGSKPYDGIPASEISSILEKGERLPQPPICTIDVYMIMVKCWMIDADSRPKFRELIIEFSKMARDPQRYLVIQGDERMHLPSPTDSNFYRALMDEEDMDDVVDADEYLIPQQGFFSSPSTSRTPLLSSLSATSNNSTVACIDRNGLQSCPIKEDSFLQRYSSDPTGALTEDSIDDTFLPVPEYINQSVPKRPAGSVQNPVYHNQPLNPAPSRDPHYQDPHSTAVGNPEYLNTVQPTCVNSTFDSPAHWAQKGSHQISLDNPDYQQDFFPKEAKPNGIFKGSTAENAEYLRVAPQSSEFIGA
EGFR Del19/T790M/C797S, sequence (P00533 with tags, fused parts or gaps DEL746-750/T790M/C797S): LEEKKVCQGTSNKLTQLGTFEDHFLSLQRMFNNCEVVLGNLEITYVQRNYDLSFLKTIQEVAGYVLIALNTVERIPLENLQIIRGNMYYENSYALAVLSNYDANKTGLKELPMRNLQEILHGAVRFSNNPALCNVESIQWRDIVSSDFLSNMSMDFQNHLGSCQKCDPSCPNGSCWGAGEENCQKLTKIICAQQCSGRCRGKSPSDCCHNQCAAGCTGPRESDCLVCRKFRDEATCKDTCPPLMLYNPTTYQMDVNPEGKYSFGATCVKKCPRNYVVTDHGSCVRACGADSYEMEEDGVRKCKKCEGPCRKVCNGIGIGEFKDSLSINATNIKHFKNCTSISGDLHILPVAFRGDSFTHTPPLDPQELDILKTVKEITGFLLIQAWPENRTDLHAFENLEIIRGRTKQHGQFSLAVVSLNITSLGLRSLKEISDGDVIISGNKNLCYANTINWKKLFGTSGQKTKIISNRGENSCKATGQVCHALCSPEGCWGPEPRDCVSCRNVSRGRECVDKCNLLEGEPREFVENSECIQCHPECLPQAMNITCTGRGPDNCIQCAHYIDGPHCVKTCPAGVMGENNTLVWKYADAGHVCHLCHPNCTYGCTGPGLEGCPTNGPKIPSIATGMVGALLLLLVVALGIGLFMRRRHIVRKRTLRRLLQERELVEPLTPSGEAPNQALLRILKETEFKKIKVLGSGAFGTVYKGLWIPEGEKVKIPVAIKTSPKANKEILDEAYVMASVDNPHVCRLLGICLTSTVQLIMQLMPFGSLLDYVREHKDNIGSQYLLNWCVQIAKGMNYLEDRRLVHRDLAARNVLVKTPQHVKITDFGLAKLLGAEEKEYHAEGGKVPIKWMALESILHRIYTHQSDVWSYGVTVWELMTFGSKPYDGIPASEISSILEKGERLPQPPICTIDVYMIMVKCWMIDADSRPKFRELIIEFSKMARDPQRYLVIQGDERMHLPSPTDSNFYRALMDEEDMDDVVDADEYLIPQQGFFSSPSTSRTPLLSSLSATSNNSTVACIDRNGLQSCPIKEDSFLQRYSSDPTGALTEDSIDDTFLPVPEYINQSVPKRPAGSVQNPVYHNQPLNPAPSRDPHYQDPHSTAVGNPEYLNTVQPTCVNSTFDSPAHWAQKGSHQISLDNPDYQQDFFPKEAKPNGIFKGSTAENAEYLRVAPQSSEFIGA
EGFR Del19/C797S, sequence (P00533 with tags, fused parts or gaps DEL746-750/C797S): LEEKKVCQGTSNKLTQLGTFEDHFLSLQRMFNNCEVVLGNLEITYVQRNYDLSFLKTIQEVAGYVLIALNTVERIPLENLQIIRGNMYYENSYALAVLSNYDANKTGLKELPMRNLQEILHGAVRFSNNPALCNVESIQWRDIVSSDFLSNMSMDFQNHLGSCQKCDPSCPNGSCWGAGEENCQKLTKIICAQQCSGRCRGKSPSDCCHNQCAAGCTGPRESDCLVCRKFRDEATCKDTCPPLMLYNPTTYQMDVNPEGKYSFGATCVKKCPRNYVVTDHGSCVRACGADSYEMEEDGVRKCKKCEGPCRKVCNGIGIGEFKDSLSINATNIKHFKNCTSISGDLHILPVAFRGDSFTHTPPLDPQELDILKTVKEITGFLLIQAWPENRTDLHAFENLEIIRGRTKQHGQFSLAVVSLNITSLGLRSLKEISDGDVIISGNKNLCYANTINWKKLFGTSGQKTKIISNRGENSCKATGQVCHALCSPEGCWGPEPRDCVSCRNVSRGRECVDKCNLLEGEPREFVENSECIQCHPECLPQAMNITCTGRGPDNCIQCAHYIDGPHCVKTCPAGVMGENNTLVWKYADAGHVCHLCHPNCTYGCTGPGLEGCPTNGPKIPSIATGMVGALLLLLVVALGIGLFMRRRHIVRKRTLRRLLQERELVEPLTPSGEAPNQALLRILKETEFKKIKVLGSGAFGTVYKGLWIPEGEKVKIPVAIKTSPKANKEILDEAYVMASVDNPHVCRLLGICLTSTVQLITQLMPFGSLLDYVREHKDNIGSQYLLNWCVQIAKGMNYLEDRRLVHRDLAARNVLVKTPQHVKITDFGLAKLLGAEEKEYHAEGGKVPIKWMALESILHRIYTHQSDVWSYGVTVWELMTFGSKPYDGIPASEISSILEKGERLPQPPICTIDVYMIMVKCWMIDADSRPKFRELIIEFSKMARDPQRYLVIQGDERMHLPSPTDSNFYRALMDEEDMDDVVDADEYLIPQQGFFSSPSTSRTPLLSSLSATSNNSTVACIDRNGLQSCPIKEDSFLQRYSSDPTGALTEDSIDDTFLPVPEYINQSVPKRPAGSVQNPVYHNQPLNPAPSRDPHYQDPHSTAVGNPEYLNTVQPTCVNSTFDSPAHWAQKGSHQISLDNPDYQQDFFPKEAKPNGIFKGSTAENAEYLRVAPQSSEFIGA

Row | IC50 [1, 6] | IC50 [2, 7] | IC50 ([3]; IC50 WT (nM), 100 μM ATP) | IC50 [4, 8] | IC50 [5, 9] | IC50 [1, 10] | IC50 [2, 11] | IC50 [3, 12] | IC50 [4, 13] | IC50 [5, 14] | SMILES
1 | 4.3 nM | 19.6 nM | > 10000 nM | 63.8 nM | 183 nM | – | – | – | – | – | Cn1cc(C#Cc2cnc(Nc3ccnc(-c4cnn(S(=O)(=O)C5CC5)c4)n3)cc2N2CCC(O)CC2)c(C(F)(F)F)n1 [Example 89, 1-(2-((2-(1-(Cyclopropylsulfonyl)-1H-pyrazol-4-yl)pyrimidin-4-yl)amino)-5-((1-methyl-3-(trifluoromethyl)-1H-pyrazol-4-yl)ethynyl)pyridin-4-yl)piperidin-4-ol]
2 | 3.6 nM | 11.8 nM | > 10000 nM | 28.5 nM | 37.2 nM | – | – | – | – | – | Cn1cc(C#Cc2cnc(Nc3ccnc(-c4cnn(S(=O)(=O)C5CC5)c4)n3)cc2N2CCC(CO)CC2)c(C(F)(F)F)n1 [Example 90, (1-(2-((2-(1-(Cyclopropylsulfonyl)-1H-pyrazol-4-yl)pyrimidin-4-yl)amino)-5-((1-methyl-3-(trifluoromethyl)-1H-pyrazol-4-yl)ethynyl)pyridin-4-yl)piperidin-4-yl)methanol]
3 | 5.6 nM | 13.9 nM | > 10000 nM | 76.8 nM | 166 nM | – | – | – | – | – | Cn1cc(C#Cc2cnc(Nc3ccnc(-c4cnn(S(=O)(=O)C5CC5)c4)n3)cc2N2CCC(CCO)CC2)c(C(F)(F)F)n1 [Example 91, 2-(1-(2-((2-(1-(Cyclopropylsulfonyl)-1H-pyrazol-4-yl)pyrimidin-4-yl)amino)-5-((1-methyl-3-(trifluoromethyl)-1H-pyrazol-4-yl)ethynyl)pyridin-4-yl)piperidin-4-yl)ethan-1-ol]
4 | 5.5 nM | 11.3 nM | > 10000 nM | 67.5 nM | 80.7 nM | – | – | – | – | – | Cn1cc(C#Cc2cnc(Nc3ccnc(-c4cnn(S(=O)(=O)C5CC5)c4)n3)cc2N[C@H]2CC[C@@H](O)CC2)c(C(F)(F)F)n1 [Example 92, (1s,4s)-4-((2-((2-(1-(Cyclopropylsulfonyl)-1H-pyrazol-4-yl)pyrimidin-4-yl)amino)-5-((1-methyl-3-(trifluoromethyl)-1H-pyrazol-4-yl)ethynyl)pyridin-4-yl)amino)cyclohexan-1-ol]
5 | 3.2 nM | 4.8 nM | > 10000 nM | 7.9 nM | 104 nM | 3.5 nM | 2.4 nM | 32 nM | 4.3 nM | 3 nM | CC1(CO)CCN(c2cc(Nc3ccnc(-c4cnn(S(=O)(=O)C5CC5)c4)n3)ncc2C#Cc2cnn(C(F)(F)F)c2)CC1 [Example 101, (1-(2-((2-(1-(Cyclopropylsulfonyl)-1H-pyrazol-4-yl)pyrimidin-4-yl)amino)-5-((1-(trifluoromethyl)-1H-pyrazol-4-yl)ethynyl)pyridin-4-yl)-4-methylpiperidin-4-yl)methanol]

Further lines, the compound ahead of its results:

Row | SMILES | IC50 [1, 6] | IC50 [2, 7] | IC50 ([3]; IC50 WT (nM), 100 μM ATP) | IC50 [4, 8] | IC50 [5, 9] | IC50 [1, 10] | IC50 [2, 11] | IC50 [3, 12] | IC50 [4, 13] | IC50 [5, 14]
6 | O=C1CCN(c2cc(Nc3ccnc(-c4cnn(S(=O)(=O)C5CC5)c4)n3)ncc2C#Cc2cnn(C3CCOCC3)c2)CC1 [Example 93, 1-(2-((2-(1-(Cyclopropylsulfonyl)-1H-pyrazol-4-yl)pyrimidin-4-yl)amino)-5-((1-(tetrahydro-2H-pyran-4-yl)-1H-pyrazol-4-yl)ethynyl)pyridin-4-yl)piperidin-4-one] | 2.2 nM | 18.2 nM | > 10000 nM | 64.8 nM | 372 nM | 1.9 nM | 2.5 nM | 260 nM | 43 nM | 18.3 nM
7 | O=S(=O)(C1CC1)n1cc(-c2nccc(Nc3cc(N[C@H]4CC[C@@H](O)CC4)c(C#Cc4cnn(C5CCOCC5)c4)cn3)n2)cn1 [Example 94, (1s,4s)-4-((2-((2-(1-(Cyclopropylsulfonyl)-1H-pyrazol-4-yl)pyrimidin-4-yl)amino)-5-((1-(tetrahydro-2H-pyran-4-yl)-1H-pyrazol-4-yl)ethynyl)pyridin-4-yl)amino)cyclohexan-1-ol] | 2.1 nM | 3.6 nM | > 10000 nM | 8.8 nM | 30.5 nM | 2 nM | 1.4 nM | 32.3 nM | 6.7 nM | 4.3 nM
8 | CC1(CO)CCN(c2cc(Nc3ccnc(-c4cnn(S(=O)(=O)C5CC5)c4)n3)ncc2C#Cc2cnn(C3CCOCC3)c2)CC1 [Example 95, (1-(2-((2-(1-(Cyclopropylsulfonyl)-1H-pyrazol-4-yl)pyrimidin-4-yl)amino)-5-((1-(tetrahydro-2H-pyran-4-yl)-1H-pyrazol-4-yl)ethynyl)pyridin-4-yl)-4-methylpiperidin-4-yl)methanol] | 1.6 nM | 2 nM | 1040 nM | 2.3 nM | 4.1 nM | 1.5 nM | 0.9 nM | 5 nM | 2.7 nM | 1.4 nM
9 | O=S(=O)(C1CC1)n1cc(-c2nccc(Nc3cc(N4CCC(F)(CO)CC4)c(C#Cc4cnn(C5CCOCC5)c4)cn3)n2)cn1 [Example 96, (1-(2-((2-(1-(Cyclopropylsulfonyl)-1H-pyrazol-4-yl)pyrimidin-4-yl)amino)-5-((1-(tetrahydro-2H-pyran-4-yl)-1H-pyrazol-4-yl)ethynyl)pyridin-4-yl)-4-fluoropiperidin-4-yl)methanol] | 1 nM | 2.1 nM | > 10000 nM | 3.1 nM | 8.1 nM | 1 nM | 0.6 nM | 12.8 nM | 3 nM | 1.5 nM
10 | O=S(=O)(C1CC1)n1cc(-c2nccc(Nc3cc(N4CCC(F)CC4)c(C#Cc4cnn(C5CCOCC5)c4)cn3)n2)cn1 [Example 97, 2-(1-(Cyclopropylsulfonyl)-1H-pyrazol-4-yl)-N-(4-(4-fluoropiperidin-1-yl)-5-((1-(tetrahydro-2H-pyran-4-yl)-1H-pyrazol-4-yl)ethynyl)pyridin-2-yl)pyrimidin-4-amine] | 1.8 nM | 5.9 nM | > 10000 nM | 25.1 nM | 162 nM | 1.8 nM | 1.7 nM | 86.5 nM | 18.3 nM | 9.2 nM
11 | COC1CCN(c2cc(Nc3ccnc(-c4cnn(S(=O)(=O)C5CC5)c4)n3)ncc2C#Cc2cnn(C3CCOCC3)c2)CC1 [Example 98, 2-(1-(Cyclopropylsulfonyl)-1H-pyrazol-4-yl)-N-(4-(4-methoxypiperidin-1-yl)-5-((1-(tetrahydro-2H-pyran-4-yl)-1H-pyrazol-4-yl)ethynyl)pyridin-2-yl)pyrimidin-4-amine] | 2.1 nM | 9.9 nM | > 10000 nM | 21.1 nM | 101 nM | 2.3 nM | 2.3 nM | 72 nM | 15.5 nM | 7.5 nM
12 | O=S(=O)(C1CC1)n1cc(-c2nccc(Nc3cc(N4CCCC(O)C4)c(C#Cc4cnn(C5CCOCC5)c4)cn3)n2)cn1 (stereo not drawn) [Example 99, 1-(2-((2-(1-(Cyclopropylsulfonyl)-1H-pyrazol-4-yl)pyrimidin-4-yl)amino)-5-((1-(tetrahydro-2H-pyran-4-yl)-1H-pyrazol-4-yl)ethynyl)pyridin-4-yl)piperidin-3-ol] | 0.7 nM | 3 nM | > 10000 nM | 14 nM | 58.1 nM | 0.7 nM | 0.8 nM | 41.7 nM | 10.4 nM | 4.2 nM
13 | O=S(=O)(C1CC1)n1cc(-c2nccc(Nc3cc(N4CCCC(CO)C4)c(C#Cc4cnn(C5CCOCC5)c4)cn3)n2)cn1 (stereo not drawn) [Example 100, (1-(2-((2-(1-(Cyclopropylsulfonyl)-1H-pyrazol-4-yl)pyrimidin-4-yl)amino)-5-((1-(tetrahydro-2H-pyran-4-yl)-1H-pyrazol-4-yl)ethynyl)pyridin-4-yl)piperidin-3-yl)methanol] | 1.6 nM | 5.6 nM | > 10000 nM | 12.9 nM | 73.9 nM | 1.7 nM | 1.3 nM | 62 nM | 10.7 nM | 7.1 nM
14 | O=S(=O)(C1CC1)n1cc(-c2nccc(Nc3cc(N[C@H]4CC[C@@H](O)CC4)c(C#Cc4cnn(C(F)(F)F)c4)cn3)n2)cn1 [Example 102, (1s,4s)-4-((2-((2-(1-(Cyclopropylsulfonyl)-1H-pyrazol-4-yl)pyrimidin-4-yl)amino)-5-((1-(trifluoromethyl)-1H-pyrazol-4-yl)ethynyl)pyridin-4-yl)amino)cyclohexan-1-ol] | 2.7 nM | 7.6 nM | > 10000 nM | 26.6 nM | 1030 nM | 2.8 nM | 2.1 nM | 186 nM | 13.9 nM | 15.7 nM
